Data as given in patent USRE37180E, “Photochemotherapeutical obstruction of newly-formed blood vessels” (Meiji Seika Kaisha, Ltd., priority 1995, dated 2001).
Counter-ions that a name gives are not always drawn.

Legend:
light absorption = type: physicochemical; conditions: can absorb well
[1] = metabolic speed and level in the blood plasma; type: in vivo
serum albumin = assay: affinity to the serum albumin; type: binding
in vivo cells = assay: transfer into the in vivo cells; conditions: not by diffusion
[2] = test system: choroidal neovascularization; assay: occlusion of choroidal neovascularization upon irradiation with laser beam; type: in vivo; conditions: irradiation with a laser beam at 664 nm
[3] = test system: active lesions of the neovascular tissues; assay: accumulation in neovascular tissues; conditions: in vivo
[4] = liposolubility / penetration into normal tissues; type: physicochemical
photo-toxicity tests = type: in vivo
[5] = acute toxicity tested by intravenous injection to CD-1 mice (male); conditions: mouse, in vivo
[6] = cited from earlier work
[7] = design: species or system normal pigmented rabbits; conditions: rabbit, in vivo
choroidal vessels = type: in vivo, normal pigmented rabbits
Excerpt: The predetermined regions (that is, said spots) of the blood vessels to be irradiated with the laser beam had been marked preliminarily by photo-coagulation by means of an argon laser beam. Immediately after the irradiation with the laser at 664 nm, as well as one week after the irradiation and one month after the irradiation with the laser at 664 nm, the fundus of the eyes under test was examined by fluorescein angiography.
The eye so treated was subsequently observed under light microscope at the end of 2 hours after the laser irradiation.
The laser-irradiated parts of the eye so treated were subsequently observed under light microscope at the end of 1 hour after the laser irradiation.

In the case of `C=Cc1c(C)c2cc3nc(c(CC(=O)N[C@@H](CC(=O)O)C(=O)O)c4[nH]c(cc5nc(cc1[nH]2)C(C)=C5CC)c(C)c4C(=O)O)[C@@H](CCC(=O)O)[C@@H]3C` [mono-L-aspartyl chlorin e6 tetra-sodium salt], the light absorption wavelength (light absorption) is reported as 664 nm, the “level in the blood plasma” value ([1]; at the end of 10 hours from the administration) is reported as 1/500 and the “metabolic speed relative to photofrin” value ([1]; faster than photofrin) is reported as “at least 10 times”. The “affinity to the serum albumin” value (serum albumin) was “has a nature of exhibiting affinity to the serum albumin”, the “mode of transfer into the in vivo cells” value (in vivo cells) was “by the phagocytosis and/or pinocytosis” and the “necrosis of the vascular endothelial cells and occlusion of choroidal neovascularization” value [2] was “cause necrosis of the vascular endothelial cells and occlusion of choroidal neovascularization”. The “accumulation in the active lesions of the neovascular tissues” value [3] was “can concentrate into and be accumulated well in the active lesions of the neovascular tissues”, the liposolubility [4] was “low liposolubility” and the “penetration and diffusion into healthy normal tissues having the barrier in vivo” value [4] was “hard to penetrate and diffuse into the healthy normal tissues having the barrier in vivo”. For the same molecule, the “adverse side reactions such as erythema and edema” value (photo-toxicity tests) was “does not involve adverse side reactions such as erythema and edema”, the LD50 [5] was 164 mg/kg and the “uptake into and excretion from the human and animal body” value [6] was “quickly uptaken into and excreted from the human and animal body”. The “level in the blood after the administration” value [7] was “can decrease quickly during an earlier period after the administration”, the “metabolism after administration into a human or animal body” value [7] was “can be metabolized well after its administration into a human or animal body” and the “obstruction of choroidal blood vessels (choriocapillaris) maintained, light microscope” value (choroidal vessels; 25 mg/kg i.v., laser immediately after injection, 1 hour after irradiation) was “the choroidal blood vessels, more particularly the choriocapillaris continued to have been obstructed”. The “endothelial cells of the chorio-capillaris / choriocapillaris, light microscope” value (choroidal vessels; 25 mg/kg i.v., laser immediately after injection, 2 hours after irradiation) was “endothelial cells of the chorio-capillaris had been swollen and necrotized and the choriocapillaris were obstructed”, the “extent of damages incurred in the choroidal vessels, laser one hour after versus immediately after injection” value (choroidal vessels; 25 mg/kg i.v., observed commonly for all the doses) was “the extent of damages incurred in the choroidal vessels is reduced at the laser irradiation as made one hour after the intravenous injection” and the “degree of obstruction of choroidal vessels compared with argon laser photo-coagulation” value (choroidal vessels; 25 mg/kg, laser immediately after administration, one week after irradiation, light microscope) was “the choroidal vessels were obstructed to a substantially same degree in the former case and the latter case”. The “obstruction in the choroidal vessels” value (choroidal vessels; 25, 50 and 100 mg/kg i.v., 664 nm laser immediately after injection, fluorescein angiography one week after irradiation) was “the obstruction took place in the choroidal vessels at all the doses” and the “degree of the obstruction in the choroidal vessels, dose dependence” value (choroidal vessels; 25, 50 and 100 mg/kg i.v., laser immediately after injection, one week after irradiation) was “the degree of the obstruction in the choroidal vessels increased with an increased doses”.
